Reference: ChEMBL document CHEMBL1201862, “PubChem BioAssay data set” (2004)
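Each compound was tested at five concentrations against cells in 96-well plates for 48 hours. GI50 is the concentration that inhibits growth by half.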 Calls of active or inactive are those of the source. Rule as the data show it: active = GI50 up to about 1.1 µM and inactive = higher.

Columns and labels:
Assay in all cases: DTP human tumour cell line panel, 48 h
A498 = test system: A498
COLO 205 = test system: COLO 205
HCC 2998 = test system: HCC 2998
HT-29 = test system: HT-29
MCF7 = test system: MCF7
MDA-MB-231 = test system: MDA-MB-231
MDA-MB-435 = test system: MDA-MB-435
MOLT-4 = test system: MOLT-4
Malme-3M = test system: Malme-3M
NCI-H522 = test system: NCI-H522
NCI/ADR-RES = test system: NCI/ADR-RES
SK-MEL-28 = test system: SK-MEL-28
SK-MEL-2 = test system: SK-MEL-2
SK-OV-3 = test system: SK-OV-3
SN12C = test system: SN12C
SNB-19 = test system: SNB-19
SNB-75 = test system: SNB-75
SR = test system: SR
U-251 = test system: U-251
UO-31 = test system: UO-31

Compound | GI50 (A498) | GI50 (COLO 205) | GI50 (HCC 2998) | GI50 (HT-29) | GI50 (MCF7) | GI50 (MDA-MB-231) | GI50 (MDA-MB-435) | GI50 (MOLT-4) | GI50 (Malme-3M) | GI50 (NCI-H522) | GI50 (NCI/ADR-RES) | GI50 (SK-MEL-28) | GI50 (SK-MEL-2) | GI50 (SK-OV-3) | GI50 (SN12C) | GI50 (SNB-19) | GI50 (SNB-75) | GI50 (SR) | GI50 (U-251) | GI50 (UO-31)
Cc1n[nH]c(C(F)(F)F)c1/N=N/N1CCOCC1 | 17.4 µM (inactive) | 4.69 µM (inactive) | 1.53 µM (inactive) | 3.24 µM (inactive) | 3.78 µM (inactive) | 12.8 µM (inactive) | 12.2 µM (inactive) | 1.84 µM (inactive) | 14.9 µM (inactive) | 3.94 µM (inactive) | 6.76 µM (inactive) | 14.7 µM (inactive) | 13.1 µM (inactive) | 16.6 µM (inactive) | 11 µM (inactive) | 15.2 µM (inactive) | 12.5 µM (inactive) | 1.24 µM (inactive) | 12 µM (inactive) | 2.4 µM (inactive)
CCOP(=O)(OCC)/C(C#N)=C/c1ncc[nH]1 | > 100 µM (inactive) | > 100 µM (inactive) | > 100 µM (inactive) | > 100 µM (inactive) | > 100 µM (inactive) | > 100 µM (inactive) | > 100 µM (inactive) | > 100 µM (inactive) | > 100 µM (inactive) | > 100 µM (inactive) | > 100 µM (inactive) | > 100 µM (inactive) | > 100 µM (inactive) | > 100 µM (inactive) | > 100 µM (inactive) | > 100 µM (inactive) | > 100 µM (inactive) | > 100 µM (inactive) | > 100 µM (inactive) | > 100 µM (inactive)
CSc1nc(SC)c2c(C)cn(C3OC(C)C(O)C(O)C3O)c2n1 (stereo not given) | 27.9 µM (inactive) | 86.7 µM (inactive) | 57.5 µM (inactive) | 53.7 µM (inactive) | 58.9 µM (inactive) | 52.7 µM (inactive) | 40 µM (inactive) | 39.3 µM (inactive) | > 100 µM (inactive) | 96.2 µM (inactive) | 67.3 µM (inactive) | 84.3 µM (inactive) | 73.5 µM (inactive) | > 100 µM (inactive) | > 100 µM (inactive) | 57 µM (inactive) | 52.6 µM (inactive) | 33.3 µM (inactive) | 62.7 µM (inactive) | 36.3 µM (inactive)
COc1ccc2c(c1)/C(=C\c1c(Cl)nc3sc(C)cn13)C(=O)N2 | 3.7 µM (inactive) | 1.6 µM (inactive) | 6.43 µM (inactive) | 2.41 µM (inactive) | 3.52 µM (inactive) | 5.65 µM (inactive) | 0.286 µM (active) | 1.54 µM (inactive) | 2.37 µM (inactive) | 3.05 µM (inactive) | 3.56 µM (inactive) | 8.17 µM (inactive) | 2.87 µM (inactive) | 4.03 µM (inactive) | 7.05 µM (inactive) | 3.84 µM (inactive) | 4.98 µM (inactive) | 0.7 µM (active) | 3.21 µM (inactive) | 5.45 µM (inactive)
CC1(C)CCC[C@@]2(C)C1CC[C@@]1(CO)O[C@H](C3=CC(=O)OC3O)C[C@H]12 (stereo not given in full) | 15 µM (inactive) | 11.1 µM (inactive) | 17.4 µM (inactive) | 13 µM (inactive) | 6.82 µM (inactive) | 18.8 µM (inactive) | 11.5 µM (inactive) | 3.03 µM (inactive) | 11 µM (inactive) | 3.69 µM (inactive) | 15 µM (inactive) | 11.4 µM (inactive) | 14.4 µM (inactive) | 29.4 µM (inactive) | 13.3 µM (inactive) | 16.2 µM (inactive) | 15.3 µM (inactive) | 2.71 µM (inactive) | 15.1 µM (inactive) | 15.2 µM (inactive)
CC(=O)NNc1nc(C)c(C(/C=C/c2ccc([N+](=O)[O-])cc2)=N/N)s1 | 70.5 µM (inactive) | > 100 µM (inactive) | 66.1 µM (inactive) | > 100 µM (inactive) | > 100 µM (inactive) | 25.4 µM (inactive) | > 100 µM (inactive) | > 100 µM (inactive) | > 100 µM (inactive) | > 100 µM (inactive) | > 100 µM (inactive) | > 100 µM (inactive) | > 100 µM (inactive) | 41.3 µM (inactive) | 84.5 µM (inactive) | > 100 µM (inactive) | 87.9 µM (inactive) | 37.7 µM (inactive) | > 100 µM (inactive) | > 100 µM (inactive)
COC(=O)C1=C(C(=O)OC)N(c2ccncc2)C(c2ccco2)=CC1c1ccccc1[N+](=O)[O-] (stereo not given) | 5.24 µM (inactive) | 4.75 µM (inactive) | 2.03 µM (inactive) | 1.99 µM (inactive) | 1.87 µM (inactive) | 11.6 µM (inactive) | 6.15 µM (inactive) | 2.16 µM (inactive) | 4.55 µM (inactive) | 2.03 µM (inactive) | 12.1 µM (inactive) | 6.32 µM (inactive) | 18.2 µM (inactive) | 16.8 µM (inactive) | 4.71 µM (inactive) | 7.18 µM (inactive) | 5.64 µM (inactive) | 0.75 µM (active) | 3.32 µM (inactive) | 3.57 µM (inactive)
